{"source": "patent US7855309B2", "about": "“Pesticide benzyloxy- and phenetyl-substituted phenyl-amidine derivatives” (Bayer CropScience AG, priority 2005, dated 2010)", "data": [{"assay": "logP by HPLC on reversed-phase column (EEC Directive 79/831 Annex V.A8)", "format": "physicochemical", "conditions": "HPLC, C18, 40° C., 0.1% aqueous formic acid and acetonitrile", "protocol": "(§1) Temperature: 40° C.; Mobile phases: 0.1% aqueous formic acid and acetonitrile; linear gradient from 10% acetonitrile to 90% acetonitrile.\n(§2) Calibration was carried out using unbranched alkan-2-ones (comprising 3 to 16 carbon atoms) with known logP values (determination of the logP values by the retention times using linear interpolation between two successive alkanones).", "values": [{"smiles": "CCN(C)C=Nc1cc(C)c(OCc2ccccc2C)cc1C", "note": "[Compound 66]", "log P": 2.06}, {"smiles": "CCN(C)C=Nc1cc(C)c(OCc2ccccc2C#N)cc1C", "note": "[Compound 58]", "log P": 1.78}, {"smiles": "Cc1ccc(COc2cc(C)c(N=CN3CCCCC3)cc2C)cc1C", "note": "[Compound 108]", "log P": 2.36}, {"smiles": "CCN(C)C=Nc1cc(C)c(CCc2ccc(OC)cc2)cc1C", "note": "[Compound 39]", "log P": 2.04}, {"smiles": "Cc1cc(OCc2ccc3nsnc3c2)c(C)cc1N=CN1CCCCC1", "note": "[Compound 128]", "log P": 1.99}, {"smiles": "CCN(C)C=Nc1cc(C)c(OCc2cc(C)c(C)cc2Cl)cc1C", "note": "[Compound 47]", "log P": 2.42}, {"smiles": "CCN(C)C=Nc1cc(C)c(CCc2ccc(Cl)cc2)cc1C", "note": "[Compound 40]", "log P": 2.27}, {"smiles": "Cc1cc(OC(C)c2cccc(Cl)c2)c(C)cc1N=CN1CCCCC1", "note": "(racemic) [Compound 131]", "log P": 2.36}, {"smiles": "COc1cc(COc2cc(C)c(N=CN3CCCCC3)cc2C)ccc1F", "note": "[Compound 121]", "log P": 2.06}, {"smiles": "CCN(C)C=Nc1cc(C)c(OCc2cccc(C)c2C)cc1C", "note": "[Compound 89]", "log P": 2.29}, {"smiles": "CCN(C)C=Nc1cc(C)c(OCc2ccc(Cl)c(C(F)(F)F)c2)cc1C", "note": "[Compound 28]", "log P": 2.47}, {"smiles": "Cc1cc(OCc2cccc(C#N)c2)c(C)cc1N=CN1CCCCC1", "note": "[Compound 120]", "log P": 1.9}, {"smiles": "CCN(C)C=Nc1cc(C)c(OCc2ccc(OCc3ccccc3)cc2)cc1C", "note": "[Compound 79]", "log P": 2.51}, {"smiles": "Cc1cc(OCc2cccc(SC(F)(F)F)c2)c(C)cc1N=CN1CCCCC1", "note": "[Compound 114]", "log P": 2.48}, {"smiles": "CCN(C)C=Nc1cc(C)c(OCc2ccc(C(C)C)cc2)cc1C", "note": "[Compound 82]", "log P": 2.51}, {"smiles": "Cc1cc(OCc2ccc(F)cc2)c(C)cc1N=CN1CCCCC1", "note": "[Compound 104]", "log P": 2.09}, {"smiles": "CCN(C)C=Nc1cc(C)c(CCc2ccccc2C(F)(F)F)cc1C", "note": "[Compound 45]", "log P": 2.42}, {"smiles": "Cc1cc(OCc2ccc(C(C)(C)C)cc2)c(C)cc1N=CN1CCCCC1", "note": "[Compound 95]", "log P": 2.64}, {"smiles": "CCN(C)C=Nc1cc(C)c(OCc2ccccc2I)cc1C", "note": "[Compound 87]", "log P": 2.29}, {"smiles": "CCN(C)C=Nc1cc(C)c(OCc2ccc3c(c2)CCCC3)cc1C", "note": "[Compound 75]", "log P": 2.55}, {"smiles": "CCN(C)C=Nc1cc(C)c(OCc2ccc(C(C)(C)C)cc2)cc1C", "note": "[Compound 8]", "log P": 2.67}, {"smiles": "Cc1cc(OCc2cccc(OC(F)(F)F)c2)c(C)cc1N=CN1CCCCC1", "note": "[Compound 113]", "log P": 2.39}, {"smiles": "Cc1cc(OCc2cc(Cl)cc(Cl)c2)c(C)cc1N=CN1CCCCC1", "note": "[Compound 90]", "log P": 2.51}, {"smiles": "Cc1cc(OCc2ccccc2SC(F)(F)F)c(C)cc1N=CN1CCCCC1", "note": "[Compound 112]", "log P": 2.48}, {"smiles": "CCN(C)C=Nc1cc(C)c(OCc2ccc(C(=O)OC)cc2)cc1C", "note": "[Compound 53]", "log P": 1.9}, {"smiles": "CON=Cc1ccc(COc2cc(C)c(N=CN3CCCCC3)cc2C)cc1", "note": "[Compound 103]", "log P": 2.21}, {"smiles": "Cc1ccc(C)c(COc2cc(C)c(N=CN3CCCCC3)cc2C)c1", "note": "[Compound 91]", "log P": 2.33}, {"smiles": "Cc1cc(OCc2cc(F)ccc2F)c(C)cc1N=CN1CCCCC1", "note": "[Compound 97]", "log P": 2.09}, {"smiles": "Cc1cc(OCc2ccc(F)c(F)c2)c(C)cc1N=CN1CCCCC1", "note": "[Compound 110]", "log P": 2.13}, {"smiles": "CCN(C)C=Nc1cc(C)c(OCc2c(C)cc(C)cc2C)cc1C", "note": "[Compound 86]", "log P": 2.42}, {"smiles": "Cc1ccc(COc2cc(C)c(N=CN3CCCCC3)cc2C)cc1", "note": "[Compound 124]", "log P": 2.23}, {"smiles": "CCN(C)C=Nc1cc(C)c(OCc2ccc3ccccc3c2)cc1C", "note": "[Compound 62]", "log P": 2.29}, {"smiles": "CCN(C)C=Nc1cc(C)c(OCc2cccc(C(=O)OC(C)(C)C)c2)cc1C", "note": "[Compound 54]", "log P": 2.42}, {"smiles": "CCN(C)C=Nc1cc(C)c(CCc2ccccc2C)cc1C", "note": "[Compound 38]", "log P": 2.38}, {"smiles": "CCN(C)C=Nc1cc(C)c(CCc2cccc(Cl)c2)cc1C", "note": "[Compound 36]", "log P": 2.2}, {"smiles": "CCN(C)C=Nc1cc(C)c(OCc2cccc(C)c2)cc1C", "note": "[Compound 57]", "log P": 2.11}, {"smiles": "CCN(C)C=Nc1cc(C)c(CCc2ccc(F)cc2)cc1C", "note": "[Compound 42]", "log P": 2.05}, {"smiles": "Cc1ccc(COc2cc(C)c(N=CN3CCCCC3)cc2C)cc1Cl", "note": "[Compound 117]", "log P": 2.39}, {"smiles": "CCN(C)C=Nc1cc(C)c(OCc2ccc(SC)cc2)cc1C", "note": "[Compound 84]", "log P": 2.16}, {"smiles": "CCN(C)C=Nc1cc(C)c(OCc2ccccc2Br)cc1C", "note": "[Compound 67]", "log P": 2.13}, {"smiles": "CCN(C)C=Nc1cc(C)c(OCc2cc3c(cc2Cl)OCO3)cc1C", "note": "[Compound 5]", "log P": 2.05}, {"smiles": "CCN(C)C=Nc1cc(C)c(OCc2cc(C)cc(C)c2)cc1C", "note": "[Compound 60]", "log P": 2.26}, {"smiles": "CCN(C)C=Nc1cc(C)c(OCc2cccc(I)c2)cc1C", "note": "[Compound 85]", "log P": 2.42}, {"smiles": "Cc1cc(OCc2cccc(Cl)c2)c(C)cc1N=CN1CCCCC1", "note": "[Compound 94]", "log P": 2.21}, {"smiles": "Cc1cc(OCc2ccccc2OC(F)F)c(C)cc1N=CN1CCCCC1", "note": "[Compound 127]", "log P": 2.13}, {"smiles": "Cc1cc(OCc2ccc(OC(F)F)cc2)c(C)cc1N=CN1CCCCC1", "note": "[Compound 125]", "log P": 2.16}, {"smiles": "CCN(C)C=Nc1cc(C)c(CCc2ccc(C(F)(F)F)cc2)cc1C", "note": "[Compound 46]", "log P": 2.45}, {"smiles": "Cc1cc(C)cc(COc2cc(C)c(N=CN3CCCCC3)cc2C)c1", "note": "[Compound 99]", "log P": 2.42}, {"smiles": "CCN(C)C=Nc1cc(C)c(OCc2ccc(F)c(OC)c2)cc1C", "note": "[Compound 22]", "log P": 1.92}, {"smiles": "CCN(C)C=Nc1cc(C)c(OCc2ccccc2C(F)(F)F)cc1C", "note": "[Compound 34]", "log P": 2.14}, {"smiles": "CCN(C)C=Nc1cc(C)c(OCc2ccc(C#N)cc2)cc1C", "note": "[Compound 10]", "log P": 1.7}, {"smiles": "Cc1cc(OCc2ccccc2F)c(C)cc1N=CN1CCCCC1", "note": "[Compound 100]", "log P": 2.09}, {"smiles": "CCN(C)C=Nc1cc(C)c(OCc2cccc(C)c2F)cc1C", "note": "[Compound 77]", "log P": 2.16}, {"smiles": "CCN(C)C=Nc1cc(C)c(OCc2ccc(OC(F)(F)F)cc2)cc1C", "note": "[Compound 23]", "log P": 2.38}, {"smiles": "Cc1cc(OCc2ccc(Cl)cc2)c(C)cc1N=CN1CCCCC1", "note": "[Compound 105]", "log P": 2.26}, {"smiles": "Cc1cc(OCc2ccccc2OC(F)(F)F)c(C)cc1N=CN1CCCCC1", "note": "[Compound 111]", "log P": 2.33}, {"smiles": "CCN(C)C=Nc1cc(C)c(OCc2ccc(Cl)cc2Cl)cc1C", "note": "[Compound 55]", "log P": 2.33}, {"smiles": "CCN(C)C=Nc1cc(C)c(OCc2ccccc2OC(F)F)cc1C", "note": "[Compound 26]", "log P": 2.03}, {"smiles": "CCN(C)C=Nc1cc(C)c(OCc2cccc(C#N)c2)cc1C", "note": "[Compound 74]", "log P": 1.83}, {"smiles": "CCN(C)C=Nc1cc(C)c(OCc2c(F)cccc2F)cc1C", "note": "[Compound 48]", "log P": 1.94}, {"smiles": "Cc1cc(OCc2ccc(Cl)c(C(F)(F)F)c2)c(C)cc1N=CN1CCCCC1", "note": "[Compound 129]", "log P": 2.51}, {"smiles": "CCN(C)C=Nc1cc(C)c(OCc2ccc(OC)cc2)cc1C", "note": "[Compound 78]", "log P": 1.92}, {"smiles": "CCN(C)C=Nc1cc(C)c(OCc2cc(F)ccc2F)cc1C", "note": "[Compound 59]", "log P": 1.99}, {"smiles": "CCN(C)C=Nc1cc(C)c(OCc2ccc3nsnc3c2)cc1C", "note": "[Compound 27]", "log P": 1.86}]}, {"assay": "logP by HPLC on reversed-phase column (EEC Directive 79/831 Annex V.A8)", "format": "physicochemical", "conditions": "reversed-phase HPLC column (C18), pH 2.3; read-out: log P (pH 2.3)", "protocol": "as §1, §2", "values": [{"smiles": "CCN(C)/C=N/c1cc(C)c(I)cc1C", "note": "[Intermediate (V-1), N′-(4-iodo-2,5-dimethylphenyl)-N-ethyl-N-methylimidoformamide]", "chromatographic logP": 1.21}, {"smiles": "CCN(C)/C=N/c1cc(C)c(/C=C/c2ccccc2F)cc1C", "note": "(racemic) [Intermediate (VII-1)]", "chromatographic logP": 2.11}]}]}
